Results reported in US20020146787A1, “Coenzymes useful for the synthesis of L-carnitine” (Sigma-Tau Industrie Farmaceutiche Riunite S.p.A, priority 1998, published 2002).

Experiments:
[1] = Temperature stability (1 h); format: physicochemical
Procedure: (§1) The gamma-butyrobetainyl chloride thus obtained is suitable for the synthesis of gamma-butyrobetainyl-coenzyme A. Coenzyme A is first suspended in an iced mixture of 1M of sodium bicarbonate at pH 7.5-9.5 (preferably pH 8.5). To this is added a definite amount of gamma-butyrobetainyl chloride (preferably in excess) keeping the pH values under control. After 15-30 minutes the reaction is complete. The formation of gamma-butyrobetainyl-coenzyme A is checked by HPLC (Spherisorb, C18 column) and finally subjected to a further purification stage (ion-exchange chromatography on DOWEX 50). The purity is checked again by HPLC (Spherisorb, C18 column). The physicochemical properties were determined on the washed product (see following table).
as §1, with “crotonobetainyl” for “gamma-butyrobetainyl”, “crotonobetainyl-coenzyme” for “gamma-butyrobetainyl-coenzyme”

[2] = tested on: system of racemization of carnitine; assay: Racemization reaction test (formation of L(−)-carnitine from D(+)-carnitine); format: biochemical; settings: 0.002 μmol cofactor, 10 min at 37° C.
Procedure: (§2) The L(−)-carnitine formed was subsequently tested with an optical test with the aid of carnitine acetyltransferase (according to BERGMEYER (1970)). A similar procedure was adopted in the racemization reaction test, in which a solution of D(+)-carnitine (1M) was added in the place of crotonobetaine. The L(−)-carnitine formed can be determined exactly by prior testing of the system with known solutions of L(−)-carnitine.
Formation of L(−)-carnitine from D(+)-carnitine by means of a system of racemization of carnitine and gamma-butyrobetainyl-coenzyme A (BB-CoA) after 10 minutes' incubation at 37° C. on potassium phosphate buffer (10 mM, pH 7.5).
Formation of L(−)-carnitine from D(+)-carnitine via a system of racemization of carnitine and crotonobetainyl-coenzyme A (CB-CoA) after 10 minutes' incubation at 37° C. on potassium phosphate buffer (10 mM, pH 7.5).

Solubility = format: physicochemical; settings: solvent in which soluble
Procedure: as §1
as §1, with “crotonobetainyl” for “gamma-butyrobetainyl”, “crotonobetainyl-coenzyme” for “gamma-butyrobetainyl-coenzyme”, “The purity is checked again by HPLC (Spherisorb, C18 column).” left out

pH stability for 1 h = format: physicochemical; settings: pH range
Procedure: as §1
as §1, with “crotonobetainyl” for “gamma-butyrobetainyl”, “crotonobetainyl-coenzyme” for “gamma-butyrobetainyl-coenzyme”, “The purity is checked again by HPLC (Spherisorb, C18 column).” left out

[3] = target: T1, L(−)-carnitine dehydratase (Escherichia coli, UniProt P31572); assay: L(−)-carnitine dehydratase activation test (formation of L(−)-carnitine from crotonobetaine); format: biochemical; settings: 0.002 μmol cofactor, 10 min at 37° C.
T1 construct: partly concentrated L(−)-carnitine dehydratase (without factor F showing any activity)
T1 sequence (P31572 whole entry): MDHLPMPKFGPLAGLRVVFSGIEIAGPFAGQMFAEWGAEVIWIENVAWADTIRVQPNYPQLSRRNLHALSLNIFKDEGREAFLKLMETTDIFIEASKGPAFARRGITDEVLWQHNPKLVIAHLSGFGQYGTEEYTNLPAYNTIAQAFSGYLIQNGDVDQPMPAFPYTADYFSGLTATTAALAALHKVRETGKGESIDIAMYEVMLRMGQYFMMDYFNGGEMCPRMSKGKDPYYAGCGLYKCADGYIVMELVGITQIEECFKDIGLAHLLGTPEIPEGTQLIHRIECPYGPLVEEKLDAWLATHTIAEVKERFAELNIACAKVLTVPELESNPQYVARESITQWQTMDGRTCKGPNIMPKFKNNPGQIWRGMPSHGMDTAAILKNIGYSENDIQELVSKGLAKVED
Procedure: (§3) For the L(−)-carnitine dehydratase activation test according to the invention purified gamma-butyrobetainyl-coenzyme A is supplied (preferably 1-10 nmol) on potassium phosphate buffer (10 mM pH 7.5), which is added with partly concentrated L(−)-carnitine dehydratase (without factor F showing any activity) and the crotonobetaine solution to be metabolized (1M) and incubated at 37° C.
as §2
as §3, with “crotonobetainyl-coenzyme” for “gamma-butyrobetainyl-coenzyme”
Formation of L(−)-carnitine from crotonobetaine by means of concentrated L(−)-carnitine dehydratase and gamma-butyrobetainyl-coenzyme A (BB-CoA) after 10 minutes' incubation at 37° C. on potassium phosphate buffer (10 mM, pH 7.5).
Formation of L(−)-carnitine from crotonobetaine by means of concentrated L(−)-carnitine dehydratase and crotonobetainyl-coenzyme A (CB-CoA) after 10 minutes' incubation at 37° C. on potassium phosphate buffer (10 mM, pH 7.5).

[4] = 0 μg carnitine racemization system, 20 μmol substrate, pH 7.5
[5] = 30 μg carnitine racemization system, 0 μmol substrate, pH 7.5
[6] = 30 μg carnitine racemization system, 20 μmol substrate (head: Crotonobetaine, text: D(+)-carnitine), potassium phosphate buffer 10 mM pH 7.5
[7] = 0 μg L-carnitine dehydratase (no enzyme), 20 μmol crotonobetaine, pH 7.5
[8] = 10 μg L-carnitine dehydratase, 0 μmol crotonobetaine (no substrate), pH 7.5
[9] = 10 μg L-carnitine dehydratase, 20 μmol crotonobetaine, potassium phosphate buffer 10 mM pH 7.5

CC(C)(COP(=O)(O)OP(=O)(O)OC[C@H]1O[C@@H](n2cnc3c(N)ncnc32)[C@H](O)[C@@H]1OP(=O)(O)O)[C@@H](O)C(=O)NCCC(=O)NCCSC(=O)CCC[N+](C)(C)C [BB-CoA, gamma-butyrobetainyl-coenzyme A]
Temperature stability (1 h) ([1]; 0° C. to 90° C.): >90%: 0 °C to 90 °C
Temperature stability (1 h) ([1]; −20° C.): 100%: −20 °C
Carnitine synthesis [2, 4]: 0 µmol
Carnitine synthesis [2, 5]: 0 µmol
Carnitine synthesis [2, 6]: 0.162 µmol
Solubility (Solubility): water
pH stability for 1 h (pH stability for 1 h): 3-10
Carnitine synthesis [3, 7]: 0 µmol
Carnitine synthesis [3, 8]: 0 µmol
Carnitine synthesis [3, 9]: 0.18 µmol

CC(C)(COP(=O)(O)OP(=O)(O)OC[C@H]1O[C@@H](n2cnc3c(N)ncnc32)[C@H](O)[C@@H]1OP(=O)(O)O)[C@@H](O)C(=O)NCCC(=O)NCCSC(=O)/C=C/C[N+](C)(C)C [CB-CoA, crotonobetainyl-coenzyme A]
Temperature stability (1 h) ([1]; 20° C. to 60° C.): 75%: 20 °C to 60 °C
Temperature stability (1 h) ([1]; −20° C. to 0° C.): 100%: −20 °C to 0 °C
Carnitine synthesis [2, 4]: 0 µmol
Carnitine synthesis [2, 5]: 0 µmol
Carnitine synthesis [2, 6]: 0.243 µmol
Solubility (Solubility): water
pH stability for 1 h (pH stability for 1 h): 2-10
Carnitine synthesis [3, 7]: 0 µmol
Carnitine synthesis [3, 8]: 0 µmol
Carnitine synthesis [3, 9]: 0.271 µmol
